Patent publication US20030109571A1, “Thromboxane ligands without blood clotting side effects” (ALLERGAN SALES, INC., priority 1993, published 2003)
pEC50, pIC50: −log10 of the molar value. Where two headings read alike, the source gives them in different places. Marks after values point to notes of the source that are not given here.

Key:
[1] = Monkey intraocular pressure, topical dosing over 5 days, applanation pneumatonometry; format: in vivo; parameters: Intraocular pressure change: unit not given beside the values; conditions: for Intraocular pressure change: monkey
Procedure: (§1) The compounds were prepared at the said concentrations in a vehicle comprising 0.1% polysorbate 80 and 10 mM TRIS base. Dogs and monkeys were treated by administering 25 ul to the ocular surface, the contralateral eye received vehicle as a control. Intraocular pressure was measured by applanation pneumatonometry. Experiments were performed with dogs and monkeys. Dog intraocular pressure was measured immediately before drug administration and at 2, 4 and 6 hour thereafter. Additional studies in monkeys were performed over a 5 day period and drug was administered at times 0, 6, 24, 30, 48, 54, 72, 78, and 96 hours. Monkey intraocular pressure was recorded just before drug administration on each day and at the 2 and 4 hour time intervals between dosing.

[2] = test system: Platelets (Human); test: Platelet aggregation in platelet-rich plasma from healthy human donors; format: cell-based; conditions: for Kb: antagonist, read-out: KB Platelets aggreg
Procedure: (§2) Activity at different prostanoid receptors was measured in vitro in isolated smooth muscle preparations. FP-activity was measured as contraction of the isolated feline iris sphincter. EP1-activity was measured as contraction of the longitudinal smooth muscle of the isolated guinea pig ileum. EP3-activity was measured as inhibition of the twitch response induced by electrical field stimulation in the isolated guinea pig was deferens and as contraction of the longitudinal smooth muscle of the isolated chick ileum. TP-vasoconstrictor activity was measured as contraction of rings of the isolated rat thoracic aorta. Effects on platelets from healthy human donors were measured by incubating platelet-rich plasma with the compounds described herein. Inhibition of aggregation was determined by the ability of the compounds described herein to inhibit platelet aggregation in platelet-rich plasma induced by 20 μM ADP.

[3] = Dog intraocular pressure, topical dosing, applanation pneumatonometry; format: in vivo; conditions: for Intraocular pressure change: dog
Procedure: as §1

[4] = molecular target: T1, TP-receptor (vascular, TPVASC) (Rattus norvegicus, UniProt P34978); test: TP-vasoconstrictor activity: contraction of rings of isolated rat thoracic aorta, without or with SQ29,548; conditions: for Kb: antagonist
T1 construct: measured in vitro in isolated smooth muscle preparations; from tissue; host or cells: rings of isolated rat thoracic aorta
T1 sequence (P34978 1-341): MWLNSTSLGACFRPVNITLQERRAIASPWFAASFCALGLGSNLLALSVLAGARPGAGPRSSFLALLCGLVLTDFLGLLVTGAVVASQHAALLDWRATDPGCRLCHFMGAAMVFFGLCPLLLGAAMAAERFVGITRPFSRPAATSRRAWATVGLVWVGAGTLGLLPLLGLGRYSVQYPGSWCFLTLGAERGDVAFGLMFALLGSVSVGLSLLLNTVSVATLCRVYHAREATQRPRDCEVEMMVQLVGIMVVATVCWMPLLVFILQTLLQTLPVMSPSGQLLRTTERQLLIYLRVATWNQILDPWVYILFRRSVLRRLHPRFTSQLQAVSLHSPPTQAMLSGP
Procedure: as §2
In addition, inhibition by the thromboxane A2-receptor antagonist SQ29,548 ([1S-[1α, 2α (5Z), 3α, 4α]]-7-[3-[[2-[phenylamino)carbonyl]-hydrazino]methyl]-7-oxabicyclo[2.2.1] hept-2-yl]-5-heptenoic acid) of vasoconstrictor activity was investigated.

[5] = molecular target: FP prostanoid receptor; test: FP-activity: contraction of the isolated feline iris sphincter; conditions: concentration producing 50% of maximal response; read-out: EC50 at FP (Cat Iris)
Procedure: as §2

[6] = test system: isolated perfused coronary arteries; conditions: at 1 μM; cited from earlier work
[7] = test system: EP1 prostanoid receptor; test: EP1-activity: contraction of longitudinal smooth muscle of isolated guinea pig ileum
Procedure: as §2

[8] = test system: EP3 prostanoid receptor; test: EP3-activity: contraction of longitudinal smooth muscle of isolated chick ileum; conditions: read-out: EC50 at EP3(d) (Chick Ileum)
Procedure: as §2

[9] = test system: EP3 prostanoid receptor; test: EP3-activity: inhibition of electrically induced twitch response in isolated guinea pig vas deferens; conditions: read-out: EC50 at EP3(c) (Guinea Pig vas deferens)
Procedure: as §2

[10] = test system: HPRP; conditions: cited from earlier work; for Effect on HPRP: in words
[11] = test system: rat aorta; conditions: read-out: CD50 contraction of isolated rat aorta; cited from earlier work
[12] = test system: vasculature; conditions: in words; cited from earlier work
[13] = test system: platelets; conditions: in words; cited from earlier work
[14] = Table 7, read-out: EC50 Platelets aggreg
[15] = Table 7, read-out: EC50 (Rat Aorta)

9,11-dideoxy-9α,11α-methanoepoxy prostaglandin F2α [Example U-46619, reference compound]
Intraocular pressure change ([1]; dose not given, 0 HR): 0
Intraocular pressure change ([1]; dose not given, 2 HR): 2.0
Intraocular pressure change ([1]; dose not given, 4 HR): 0.3
Intraocular pressure change ([1]; dose not given, 6 HR): 1.0
Effect on intraocular pressure ([1]; monkeys, in words): increase in intraocular pressure
pEC50 [2, 14]: 6.49
Agonist response, platelet aggregation ([2]; agonist alone at 3.3 × 10-7): 97.7 ± 1.6 % of max response
Agonist response, platelet aggregation ([2]; agonist alone at 10-6): 100.0 ± 1.9 % of max response
Agonist response, platelet aggregation ([2]; agonist alone at 10-7): −7.0 + 1.1 % of max response
Agonist response, platelet aggregation ([2]; agonist alone at 10-8): 0 % of max response
Intraocular pressure change ([3]; dose 0.1%, 2 HR after dosing): +0.86
Intraocular pressure change ([3]; dose 0.1%, 4 HR after dosing): +1.75
Intraocular pressure change ([3]; dose 0.1%, 6 HR after dosing): +2.7
Effect on intraocular pressure ([3]; dogs, in words): increase in intraocular pressure

CCCCCC(O)/C=C/C1C2CC(OC(=O)O2)C1C/C=C\CCCC(=O)O (stereo not drawn) [Example 7]
pEC50 ([4]; Table 1, read-out: EC50 at TPVASC (Rat Aorta)): 9.64
pEC50 ([4]; absence of SQ29,548, read-out: EC50 at TPVASC-receptor, rat aorta): 8.70
pEC50 ([4]; presence of SQ29,548 (1 uM), read-out: EC50 at TPVASC-receptor, rat aorta): 6.49
pEC50 [5]: 6.36
Inhibition of vasoconstriction of isolated perfused cat coronary artery induced by carbocyclic TXA2 [6]: Inhibited vasoconstriction of isolated perfused cat coronary artery induced by carbocyclic TXA2 by 72% at 1 μM^11
pEC50 [7]: 5.91
pEC50 [8]: 6.61
Intraocular pressure change ([1]; dose 0.01%, 0 HR): 0
Intraocular pressure change ([1]; dose 0.01%, 2 HR): −0.4
Intraocular pressure change ([1]; dose 0.01%, 4 HR): 0
Intraocular pressure change ([1]; dose 0.01%, 6 HR): 0
Intraocular pressure change ([1]; dose 0.01%, 24 HR): −1.0
Intraocular pressure change ([1]; dose 0.01%, 26 HR): 3.2
Intraocular pressure change ([1]; dose 0.01%, 28 HR): −4.6
Intraocular pressure change ([1]; dose 0.01%, 30 HR): −3.2
Intraocular pressure change ([1]; dose 0.01%, 48 HR): −1.8
Intraocular pressure change ([1]; dose 0.01%, 50 HR): −3.8
Intraocular pressure change ([1]; dose 0.01%, 52 HR): −4.0
Intraocular pressure change ([1]; dose 0.01%, 54 HR): −4.2
Intraocular pressure change ([1]; dose 0.01%, 72 HR): 4.2
Intraocular pressure change ([1]; dose 0.01%, 74 HR): −2.0
Intraocular pressure change ([1]; dose 0.01%, 76 HR): −3.2
Intraocular pressure change ([1]; dose 0.01%, 78 HR): −4.0
Intraocular pressure change ([1]; dose 0.01%, 96 HR): −2.0
Intraocular pressure change ([1]; dose 0.01%, 98 HR): −2.2
Intraocular pressure change ([1]; dose 0.01%, 100 HR): −3.2
pEC50 ([2]; Table 1, read-out: EC50 Platelets (Human) Aggregation): 7.62
Agonist response, platelet aggregation ([2]; agonist alone at 3.3 × 10-8): −8.8 + 1.3 % of max response
Agonist response, platelet aggregation ([2]; agonist alone at 10-6): 103.0 ± 1.9 % of max response
Agonist response, platelet aggregation ([2]; agonist alone at 10-7): 100.5 ± 2.2 % of max response
Agonist response, platelet aggregation ([2]; agonist alone at 10-8): −7.9 + 1.3 % of max response
Agonist response, platelet aggregation ([2]; agonist alone at 10-9): 0 % of max response
pEC50 [9]: 6.55
Intraocular pressure change ([3]; dose 0.01%, 2 HR after dosing): −9.7**
Intraocular pressure change ([3]; dose 0.01%, 4 HR after dosing): −11.4**
Intraocular pressure change ([3]; dose 0.01%, 6 HR after dosing): −11.25**

CCCCCC(/C=C/C1C2CC(OC(=O)O2)C1C/C=C\CCCC(=O)OCc1ccccc1)OC(=O)C(C)(C)C (stereo not drawn) [Example 11, 7-16-carbobenzoxy-2-cis-hexenyl]-6-[3α-pivaloyloxy-1-trans-octenyl]-3-oxo-2,4-dioxobicyclo[3.2.11 octane]
Effect on HPRP [10]: no effect
Intraocular pressure change ([3]; dose 0.1%, 2 HR after dosing): −6.9**
Intraocular pressure change ([3]; dose 0.1%, 4 HR after dosing): −7.7**
Intraocular pressure change ([3]; dose 0.1%, 6 HR after dosing): −9.4**

CCCCCC(/C=C/C1C2CC(OC(=O)O2)C1C/C=C\CCCC(=O)O)OC(=O)C(C)(C)C (stereo not drawn) [Example 12, 7-[6-carboxy-2-cis-hexenyl]-6-[3α-pivaloyloxy-1-trans-octenyl]-3-oxo-2,4-dioxobicyclo [3.2.1] Octane]
Effect on HPRP [10]: no effect
Intraocular pressure change ([3]; dose 0.1%, 2 HR after dosing): −3.8**
Intraocular pressure change ([3]; dose 0.1%, 4 HR after dosing): −4.7**
Intraocular pressure change ([3]; dose 0.1%, 6 HR after dosing): −6.9**

CCCCC[C@H](O)/C=C/C1S[C@H]2CC(S2)[C@@H]1C/C=C\CCCC(=O)O (stereo partly drawn) [Example 13]
pIC50 ([10]; read-out: IC50 irreversible aggregation of HPRP): 5.37
pEC50 [11]: 9.15

CCCCCC(/C=C/C1C2CC(OC(=O)O2)C1C/C=C\CCCC(=O)O)O[Si](C)(C)C(C)(C)C (stereo not drawn) [Example 16, 7-[6-carboxy-2-cis-hexenyl]-6-[3α-t-butyldimethylsilyloxy-1-trans-octenyl]-3-oxo-2,4-dioxobicyclo [3.2.1] octane]
Activity in contracting vascular smooth muscle ([4]; in words): pronounced activity
Action on the vasculature [12]: weak vasoconstrictor activity
Action on platelets [13]: No effect
Ability to cause platelet aggregation ([2]; in words): no or minimal ability

I-BOP [reference compound]
pEC50 [4, 15]: 8.70
pEC50 [2, 14]: 6.67

Pinane thromboxane A2 [reference compound]
pEC50 [4, 15]: 6.69
pEC50 [2, 14]: 6.02

[1R-[1α, 4α, 5β(Z), 6α(1E, 3S*)-7-[6-(3-hydroxy-1-octenyl)-2-oxabicyclo[2.2.1]hept-5-yl]-5-hepten-1-ol [Example 19]
pEC50 [4, 15]: 7.59

[1S-[1α, 2α (5Z), 3α, 4α]]-7-[3-[[2-[phenylamino)carbonyl]-hydrazino]methyl]-7-oxabicyclo[2.2.1] hept-2-yl]-5-heptenoic acid [SQ29,548, reference compound]
Kb ([4]; Table 7): 1.6 nM
Kb ([2]; Table 7): 30.6 nM

[1S-[1α, 2α(5Z), 3α, 4α]]-7-[3-[2(phenylamino)carbonyl]-hydrazino]methyl]-7-oxabicyclo [2.2.1]hept-2-yl]-5-hepten-1-ol [Example 22]
Kb ([4]; Table 7): 18.2 nM
Kb ([2]; Table 7): 4500 nM

[1S-[1α, 2α(Z), 3β(1E, 3S*), 4α]]-7-[3-(3-hydroxy-4-(4-iodophenoxy)-1-butenyl]-7-oxabicyclo[2.2.1]hept-2-yl]-5-hepten-1-ol [Example 21]
pEC50 [4, 15]: 9.40

[1S-[1α, 2β(Z), 3(1E, 3R*), 5α]]-7-[3-(3-hydroxy-1-octenyl)-6,6-dimethylbicyclo[3.1.1]hept-2-yl]-5-hepten-1-ol [Example 20]
pEC50 [4, 15]: 6.03
